Source: ChEMBL document CHEMBL4808216, “Gut-Restricted Selective Cyclooxygenase-2 (COX-2) Inhibitors for Chemoprevention of Colorectal Cancer” (J Med Chem, 2021)
Values after ≈ are worked out from the molar mass of the structure shown. Active and inactive are the calls of the source. No cut-off for these calls is given here.

Legend:
[1] = Half life in human liver microsomes; format: ADME, Microsome
[2] = Oral bioavailability in Sprague Dawley rat at 10 mg/kg measured up to 24 hrs by LC-MS analysis; format: ADME, organism-based; conditions: in vivo
[3] = Equilibrium solubility of compound in FASSIF at pH 6.5; format: physicochemical
[4] = Tmax in C57BL/6J mouse at 10 mg/kg, po administered as cassette dose measured at 4 hrs by liquid chromatographic triple-quadrupole mass spectrometric method; format: ADME, organism-based; conditions: in vivo
[5] = Drug concentration in C57BL/6J mouse colon at 10 mg/kg, po administered as cassette dose measured at 4 hrs by LC/MS/MS analysis; format: ADME, organism-based; conditions: read-out: Ct
[6] = Protein binding in human colon assessed as unbound fraction; format: ADME, tissue-based
[7] = Drug concentration in C57BL/6J mouse portal vein plasma at 10 mg/kg, po administered as cassette dose measured at 4 hrs by LC/MS/MS analysis; format: ADME, organism-based
[8] = Oral bioavailability in Cynomolgus monkey at 10 mg/kg measured up to 24 hrs by LC-MS analysis; format: ADME, organism-based, Macaca fascicularis; conditions: in vivo
[9] = biological target: T1, Prostaglandin G/H synthase 2 (Homo sapiens, UniProt P35354); test: Inhibition of COX2 in human whole blood assessed as reduction in LPS stimulated PGE2 production incubated for 1 hr by ELISA; format: tissue-based
T1 sequence (P35354 whole entry): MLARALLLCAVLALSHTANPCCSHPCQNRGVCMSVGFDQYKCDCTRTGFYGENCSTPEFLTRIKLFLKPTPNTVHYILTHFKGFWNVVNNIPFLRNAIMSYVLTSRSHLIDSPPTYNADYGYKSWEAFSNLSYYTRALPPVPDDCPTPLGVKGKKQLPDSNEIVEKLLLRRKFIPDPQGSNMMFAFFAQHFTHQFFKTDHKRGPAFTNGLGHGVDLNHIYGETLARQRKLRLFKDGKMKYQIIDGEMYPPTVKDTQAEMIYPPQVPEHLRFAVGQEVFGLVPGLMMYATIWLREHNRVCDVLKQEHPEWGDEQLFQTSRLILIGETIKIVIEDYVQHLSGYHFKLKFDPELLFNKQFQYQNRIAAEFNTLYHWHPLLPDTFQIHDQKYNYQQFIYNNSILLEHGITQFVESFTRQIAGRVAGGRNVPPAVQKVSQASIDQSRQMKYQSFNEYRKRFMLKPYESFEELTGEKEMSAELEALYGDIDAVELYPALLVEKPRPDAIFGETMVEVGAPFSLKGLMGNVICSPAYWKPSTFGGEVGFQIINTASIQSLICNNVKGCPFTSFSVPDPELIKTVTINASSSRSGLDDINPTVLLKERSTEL

[10] = biological target: T1, Prostaglandin G/H synthase 2; test: Inhibition of human recombinant COX-2 using arachidonic acid as substrate preincubated for 60 mins followed by substrate addition for 2 secs by ADPH based fluorometric analysis
[11] = Half life in C57BL/6J mouse at 2 mg/kg, iv measured after 0.08 to 24 hrs; format: ADME, organism-based; conditions: in vivo, 2 mg/kg, time 0.08-24 hrs
[12] = Protein binding in human plasma assessed as unbound fraction; format: ADME, cell-free
[13] = Drug metabolism in mouse hepatocytes assessed as metabolic turnover at 10 uM incubated up to 2 hrs by LC/MS-MS analysis; format: ADME, cell-based, Hepatocyte
[14] = Half life in mouse liver microsomes; format: ADME, Microsome
[15] = biological target: T1, Prostaglandin G/H synthase 2; test: Inhibition of COX2 (unknown origin) expressed in HEK293 TRex cells assessed as reduction in PGE2 production using arachidonic acid as substrate preincubated for 60 mins followed by substrate addition for 1 hr in presence of 10% FBS by RapidFire High-Throughput Mass Spectrometry; format: cell-based, HEK293-T-REx
[16] = tested on: HEK293; test: Selectivity ratio of IC50 for COX1 (unknown origin) expressed in HEK293 TRex cells assessed as reduction in PGE2 production to IC50 for COX2 (unknown origin) expressed in HEK293 TRex cells assessed as reduction in PGE2 production; format: cell-based; conditions: Homo sapiens
[17] = organism: Homo sapiens; test: Selectivity ratio of IC50 for COX1 in human whole blood assessed as reduction in calcium ionophore-stimulated TXB2 production to IC50 for COX2 in human whole blood assessed as reduction in LPS stimulated PGE2 production; format: tissue-based
[18] = biological target: T2, Prostaglandin G/H synthase 2 (Homo sapiens) (UniProt P35354)
T2 sequence (whole entry): T1 sequence (P35354 whole entry)
Description: Protein occupancy at human recombinant COX-2 assessed as dissociation half life

[19] = in vivo; conditions: C57BL/6J, mouse, colon / portal vein plasma, po, 10 mg/kg
Description: Ratio of drug concentration in C57BL/6J mouse colon to portal vein plasma at 10 mg/kg, po measured after 4 hr by liquid chromatographic triple-quadrupole mass spectrometric method

[20] = Drug concentration in C57BL/6J mouse colon at 10 mg/kg, po administered as cassette dose measured at 2 hrs by liquid chromatographic triple-quadrupole mass spectrometric method; format: ADME, organism-based; conditions: read-out: Ct
[21] = tested on: Mus musculus; test: Chemo-protective activity in C57BL/6J mouse model of spontaneous GI-tract tumor Apc-min assessed as 18F-FDG uptake in ileum at 300 mg/kg, po incorporated into chow diet administered daily for 2 weeks and measured after 14 days by ex vivo PET imaging analysis relative to control; format: functional
[22] = Oral bioavailability in C57BL/6J mouse at 10 mg/kg measured up to 24 hrs by LC-MS analysis; format: ADME, organism-based; conditions: in vivo
[23] = Volume of distribution at steady state in C57BL/6J mouse at 2 mg/kg, iv measured after 0.08 to 24 hrs; format: ADME, organism-based; conditions: in vivo, 2 mg/kg, time 0.08-24 hrs
[24] = biological target: T3, Prostaglandin G/H synthase 1 (Homo sapiens, UniProt P23219); test: Inhibition of COX1 in human whole blood assessed as reduction in calcium ionophore-stimulated TXB2 production incubated for 1 hr by ELISA; format: tissue-based
[25] = Drug concentration in C57BL/6J mouse plasma at 10 mg/kg, po administered as cassette dose measured at 4 hrs by LC/MS/MS analysis; format: ADME, organism-based
[26] = Half life in human hepatocytes; format: ADME, cell-based, Hepatocyte
[27] = Half life in mouse hepatocytes; format: ADME, cell-based, Hepatocyte
[28] = biological target: T3, Prostaglandin G/H synthase 1; test: Inhibition of human recombinant COX-1 assessed as reduction in peroxidase activity using arachidonic acid as substrate preincubated for 60 mins followed by substrate addition for 2 secs by ADPH based fluorometric analysis; format: ADME
[29] = Ratio of drug concentration in C57BL/6J mouse colon to plasma at 10 mg/kg, po measured after 4 hr by liquid chromatographic triple-quadrupole mass spectrometric method; format: ADME, organism-based
[30] = Oral bioavailability in dog at 10 mg/kg measured up to 24 hrs by LC-MS analysis; format: ADME, organism-based, Canis lupus familiaris; conditions: in vivo
[31] = tested on: Mus musculus; test: Antitumor activity in C57BL/6J mouse model of spontaneous GI-tract tumor Apc-min assessed as reduction in total ileum polyp area at 300 mg/kg, po administered as suspension for 10 to 12 weeks; format: functional; conditions: time 10-12 weeks, read-out: TGI
[32] = biological target: T3, Prostaglandin G/H synthase 1; test: Inhibition of COX1 (unknown origin) expressed in HEK293 TRex cells assessed as reduction in PGE2 production using arachidonic acid as substrate preincubated for 60 mins followed by substrate addition for 1 hr in presence of 10% FBS by RapidFire High-Throughput Mass Spectrometry; format: ADME, cell-based, HEK293-T-REx
[33] = Drug metabolism in human hepatocytes assessed as metabolic turnover at 10 uM incubated up to 2 hrs by LC/MS-MS analysis; format: ADME, cell-based, Hepatocyte; conditions: read-out: Drug metabolism
[34] = biological target: T1, Prostaglandin G/H synthase 2; test: Inhibition of human recombinant COX-2 assessed as reduction in peroxidase activity using arachidonic acid as substrate preincubated for 60 mins followed by substrate addition for 2 secs by ADPH based fluorometric analysis
[35] = tested on: Mus musculus; test: Antitumor activity in C57BL/6J mouse model of spontaneous GI-tract tumor Apc-min assessed as reduction in total ileum polyp area at 30 to 300 mg/kg, po administered as suspension for 10 weeks; format: functional, organism-based; conditions: dose 30-300 mg/kg
[36] = tested on: Mus musculus; test: Antitumor activity in C57BL/6J mouse model of spontaneous GI-tract tumor Apc-min assessed as change in ileum polyp size at 30 to 300 mg/kg, po administered as suspension for 10 weeks; format: functional; conditions: dose 30-300 mg/kg
[37] = tested on: Mus musculus; test: Antitumor activity in C57BL/6J mouse model of spontaneous GI-tract tumor Apc-min assessed as reduction in total ileum polyp number at 30 to 300 mg/kg, po administered as suspension for 10 weeks; format: functional, organism-based; conditions: dose 30-300 mg/kg
[38] = biological target: T4, Prostaglandin G/H synthase 2 (Mus musculus, UniProt Q05769); test: In vivo inhibition of COX2 in po dosed C57BL/6J mouse model of spontaneous GI-tract tumor Apc-min assessed as chemopreventive effect by measuring reduction in polyp area and relevant plasma exposures; format: functional, organism-based
T4 sequence (Q05769 whole entry): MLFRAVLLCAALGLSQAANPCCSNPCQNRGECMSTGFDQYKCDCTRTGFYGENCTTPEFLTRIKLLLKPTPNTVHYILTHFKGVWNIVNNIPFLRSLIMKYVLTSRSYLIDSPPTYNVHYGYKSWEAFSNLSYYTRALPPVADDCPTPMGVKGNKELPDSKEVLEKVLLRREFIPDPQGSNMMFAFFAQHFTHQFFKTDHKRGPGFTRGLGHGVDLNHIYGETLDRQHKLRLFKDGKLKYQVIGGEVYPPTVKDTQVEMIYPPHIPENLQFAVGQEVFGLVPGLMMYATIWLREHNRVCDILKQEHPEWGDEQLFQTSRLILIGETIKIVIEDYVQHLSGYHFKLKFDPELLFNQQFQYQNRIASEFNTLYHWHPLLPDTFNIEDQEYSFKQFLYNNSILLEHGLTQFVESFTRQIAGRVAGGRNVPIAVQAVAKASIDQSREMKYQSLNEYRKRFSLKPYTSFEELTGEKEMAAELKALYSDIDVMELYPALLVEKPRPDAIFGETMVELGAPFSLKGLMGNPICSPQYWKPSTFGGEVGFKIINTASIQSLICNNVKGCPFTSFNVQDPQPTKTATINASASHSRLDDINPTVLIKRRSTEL

[39] = tested on: Mus musculus; test: Antitumor activity in C57BL/6J mouse model of spontaneous GI-tract tumor Apc-min assessed as mouse survival at 100 mg/kg, po administered daily as suspension and measured at day 82 by Kaplan-Meier method; format: functional
[40] = biological target: T4, Prostaglandin G/H synthase 2; test: In vivo inhibition of COX2 in po dosed C57BL/6J mouse model of spontaneous GI-tract tumor Apc-min assessed as chemopreventive effect by measuring reduction in polyp area and relevant ileum exposures; format: functional, organism-based

T3 sequence (P23219 whole entry): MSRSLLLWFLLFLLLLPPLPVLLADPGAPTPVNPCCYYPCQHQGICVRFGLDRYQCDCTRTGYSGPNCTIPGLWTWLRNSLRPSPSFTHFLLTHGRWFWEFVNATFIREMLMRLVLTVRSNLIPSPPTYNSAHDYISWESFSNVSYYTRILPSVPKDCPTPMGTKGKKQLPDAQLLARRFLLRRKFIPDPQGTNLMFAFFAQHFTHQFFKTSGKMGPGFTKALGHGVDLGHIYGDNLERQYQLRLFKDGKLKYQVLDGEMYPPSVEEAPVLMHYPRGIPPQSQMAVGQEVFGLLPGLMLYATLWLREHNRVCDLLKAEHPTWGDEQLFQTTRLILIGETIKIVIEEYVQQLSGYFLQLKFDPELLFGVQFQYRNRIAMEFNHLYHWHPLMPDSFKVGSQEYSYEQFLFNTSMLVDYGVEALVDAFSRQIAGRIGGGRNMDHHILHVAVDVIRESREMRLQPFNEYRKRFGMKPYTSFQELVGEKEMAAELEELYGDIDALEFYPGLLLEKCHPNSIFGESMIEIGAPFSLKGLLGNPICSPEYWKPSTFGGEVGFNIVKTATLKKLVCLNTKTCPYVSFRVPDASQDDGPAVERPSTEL

CCCCOc1nc(OCC(C)(C)O)c(-c2ccc(S(C)(=O)=O)cc2)cc1CO
half-life [1]: 27.8 min
bioavailability [2]: 1.5%
solubility thermodynamic [3]: 66.5 µM (≈ 28.2 µg/mL)
Tmax [4]: 15 min
concentration at 4 h [5]: 4350 ng/g
fraction unbound [6]: 0.025
concentration at 4 h [7]: 24.8 ng/mL
bioavailability [8]: 4.87%
IC50 [9]: 346 nM
Ki [10]: 12 nM
t1/2 [11]: 13.8 min
fraction unbound [12]: 0.009
Drug metabolism [13]: 79.6%
half-life [14]: 2.7 min
IC50 [15]: 47 nM
Ratio IC50 [16]: 300
Ratio IC50 [17]: > 200
T1/2 [18]: 1080 min
Kp at 4 h [19]: 29.7
concentration at 2 h [20]: 6510 ng/g
Activity [21]: 48.9%
bioavailability [22]: 4.25%
Vdss [23]: 4.92 L/kg
IC50 [24]: > 180000 nM
concentration at 4 h [25]: 3 ng/mL
half-life [26]: 2.4 min
t1/2 [27]: 1.9 min
IC50 [28]: > 50000 nM
Kp at 4 h ([29]; C57BL/6J, colon / plasma): 1620
bioavailability [30]: 74%
inhibition in vivo at 300 mg/kg [31]: 35.1%
IC50 [32]: 14100 nM
metabolised at 2 h, 10 µM [33]: 100%
IC50 [34]: 226 nM

CC(C)(O)COc1nc(OCCC(F)(F)F)c(CO)cc1-c1ccc(S(C)(=O)=O)cc1
solubility thermodynamic [3]: 44.4 µM (≈ 20.6 µg/mL)
concentration at 4 h [5]: 15500 ng/g
fraction unbound [6]: 0.224
concentration at 4 h [7]: 179 ng/mL
IC50 [9]: 877 nM
Ki [10]: 32 nM
fraction unbound [12]: 0.01
IC50 [15]: 130 nM
Ratio IC50 [17]: > 200
Activity [35]: Active
Activity [36]: >2 mm
T1/2 [18]: 1320 min
Kp at 4 h [19]: 101
Activity [21]: 48.6%
Activity [37]: Active
IC50 [24]: 181000 nM
concentration at 4 h [25]: 3.4 ng/mL
IC50 [38]: 1.3 nM
Survival [39]: 74 days
IC50 [28]: > 50000 nM
Ratio ([29]; other tissue, 10 mg/kg, 4 h): 5264
inhibition in vivo at 300 mg/kg [31]: 48.7%
IC50 [32]: 130 nM
IC50 [40]: 742 nM
IC50 [34]: 500 nM
